From patent publication US6713051B2, “Antiperspirant or deodorant compositions” (Unilever Home & Personal Care USA division of Conopco, Inc., priority 2001, dated 2004) come the findings set out here.

What all share (format): cell-based
In one assay the test system is interleukin-6 (IL-6). The experiment in a line: Skin organotypic culture analysis: AP-induced IL-6 release into the medium. The settings on record: for IL-6: 24 h, Nil 51.7, AP 118.8. On the procedure:
The cultures were then incubated at 37° C., 5% CO2, and 95% relative humidity (standard cell culture conditions) for 24 h. The culture medium was assayed for the pro-inflammatory cytokine interleukin-6 (IL-6) and after washing to remove the AP formulation, the viability of the culture was determined using the Thiazoyl blue (MTT) assay (Mosmann, T. J. Immunol. Methods 65, p55 (1983). IL-6 was determined using an Immunoassay (Quantikine, R&D systems).
In this Example, skin organotypic cultures (Epiderm™, MatTek, USA) were treated topically with the above-identified AP formulation and the trans-10-cis-12 conjugated linoleic acid (TC CLA) was introduced into the medium. The cultures were then incubated at 37° C., 5% CO2, and 95% relative humidity (standard cell culture conditions) for 24 h. The culture medium was assayed for the pro-inflammatory cytokine interleukin-6 (IL-6) and after washing to remove the AP formulation, the viability of the culture was determined by the method described in Example 2.
The cultures were then incubated at 37° C., 5% CO2, and 95% relative humidity (standard cell culture conditions) for 24 hours. The culture medium was assayed for the pro-inflammatory cytokine interleukin-6 (IL-6) and after washing to remove the AP formulation, the viability of the culture was determined using the MTT assay. IL-6 was determined using an ELISA assay (R&D systems).

Another assay has as its target T1, human PPARα (Homo sapiens, UniProt Q07869).
T1 construct: The coding region of a human PPARα cDNA was inserted downstream of the CMV promoter; expressed in transfected cells; host or cells: Cos-7 cells, transient transfection (pcDNA3.1(−)-PPARα, pRSV-RXRα, 3xPPRE-TK-luc reporter, pRL-TK)
T1 sequence (Q07869 1-468): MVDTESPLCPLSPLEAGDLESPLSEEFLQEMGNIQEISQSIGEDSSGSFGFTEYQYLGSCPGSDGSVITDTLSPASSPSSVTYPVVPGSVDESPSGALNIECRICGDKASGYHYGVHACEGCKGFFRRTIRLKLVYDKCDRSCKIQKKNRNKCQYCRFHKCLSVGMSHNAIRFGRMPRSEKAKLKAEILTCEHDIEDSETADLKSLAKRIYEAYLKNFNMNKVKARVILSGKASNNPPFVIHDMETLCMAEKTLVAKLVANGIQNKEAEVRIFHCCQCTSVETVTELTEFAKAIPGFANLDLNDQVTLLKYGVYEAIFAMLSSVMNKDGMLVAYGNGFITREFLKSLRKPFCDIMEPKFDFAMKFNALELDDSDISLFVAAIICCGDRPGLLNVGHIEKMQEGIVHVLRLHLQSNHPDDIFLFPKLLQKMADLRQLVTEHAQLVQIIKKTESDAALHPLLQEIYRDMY
T1 sequence (P19793 1-462 partner): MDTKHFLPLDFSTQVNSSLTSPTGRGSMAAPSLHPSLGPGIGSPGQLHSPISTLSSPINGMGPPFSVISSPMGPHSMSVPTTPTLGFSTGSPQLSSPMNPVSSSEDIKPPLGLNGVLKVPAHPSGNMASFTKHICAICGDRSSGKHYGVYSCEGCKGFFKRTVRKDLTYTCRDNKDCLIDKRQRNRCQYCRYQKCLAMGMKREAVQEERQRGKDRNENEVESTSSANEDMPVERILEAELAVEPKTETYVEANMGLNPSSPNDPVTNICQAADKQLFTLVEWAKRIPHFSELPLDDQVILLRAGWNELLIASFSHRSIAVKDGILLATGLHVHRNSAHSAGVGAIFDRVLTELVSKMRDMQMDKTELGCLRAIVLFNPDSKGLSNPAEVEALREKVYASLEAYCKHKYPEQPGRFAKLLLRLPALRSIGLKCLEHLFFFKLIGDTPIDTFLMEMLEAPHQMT
The experiment in a line: PPARα reporter gene assay (firefly luciferase, transiently transfected Cos-7 cells). Particulars: for Result (superior activity class achieved): class reached; for Pass at (lowest tested administration level at which the test material passed): pass = activation greater than oleic acid at 100 μM, commonly >1.57 times vehicle control, 24 h treatment. The source says: One convenient reporter assay for determining whether a fatty acid material is PPARα activating is based upon the firefly luciferase gene.
Fatty acids were screened to identify PPAR activating fatty acids using a reporter assay.
This assay relied on ligands binding to and activating the PPARα protein, which, in turn, activated genes under the control of PPAR response elements (PPRE). In the assay, the firefly luciferase gene was cloned behind a promoter containing 3 copies of the fatty acid binding protein PPRE.
The assay was performed by transient transfection of Cos-7 cells with a mixture of four DNA plasmids. These were:
1) PPAR reporter gene construct (Modified pNF-KB-luc reporter vector (Firefly luciferase reporter vector commercially available form Clontech (NF-kB response element, TK minimal promoter, luc^+, f1 origin, pUC origin, amp^r)). A tandem repeat of 3 PPAR response elements (PPREs) corresponding to the PPRE found in the fatty acid binding protein promoter was inserted upstream of the minimal TK promoter to replace the NF-κB response element);
2) 2) Over-expressing PPARα construct (Modified pcDNA3.1(−) vector (A mammalian expression vector commercially available from Invitrogen (CMV promoter, f1 origin, SV40 origin, ColE1 origin, neo^r, amp^r)). The coding region of a human PPARα cDNA was inserted downstream of the CMV promoter of pcDNA3.1 (−)). […] The coding region of a human RXRα cDNA has been inserted downstream of the RSV promoter. (Gift of V. K. K. Chatterjee, Addenbrooke's Hospital, Cambridge)) 4) Control luciferase construct (pRL-TK Renilla luciferase reporter vector commercially available from Promega (HSV-TK promoter, T7 promoter, Rluc^+, ori, amp^r)). For the transfection, DNA was made up as a mix of PPAR reporter gene: PPARα: RXRα: control in the ratio 40:4:3:3.
Cos-7 cells were grown in Dulbecco's modified Eagle's Medium, also herein referred to as DMEM with 10% foetal calf serum, herein also referred to as FCS at 37° C., 5% CO2 to 80% confluency. Cells were then plated out in 24 well plates at 50,000 cells per well and incubated overnight in DMEM with 10% FCS at 37° C., 5% CO2. Cells were then transfected using the LipofectAMINE reagent (GibcoBRL). For each well 0.4 μg of DNA mix (in 25 μl of DMEM) was incubated with 1 μl LipofectAMINE (in 25 μl of DMEM) for 45 minutes. The mixture was then made up to 250 μl per well and added to the cells, which had been washed with 1 ml of DMEM. Cells were then incubated for 5 hours at 37° C., 5% CO2 and 250 μl DMEM with 10% SBCS (charcoal stripped bovine calf serum) added. Cells were incubated for 18 hours at 37° C., 5% CO2 before being treated with the appropriate compound/extract. Test compounds were made up as 1000× stocks (in DMSO or ethanol as appropriate) and diluted into DMEM with 10% SBCS (500 μl per well) immediately before being added to cells. Each treatment was performed in triplicate. The transfection mix was removed from the cells and replaced with the treatment mix, and incubated for 24 hours at 37° C., 5% CO2. Cells were washed with 1 ml of PBS (without calcium or magnesium) and then lysed with 100 μl per well of 1× Passive Lysis Buffer (as supplied with Promega Dual Luciferase assay kit). Lysis was allowed to continue for 15 minutes and then the lysate was assayed for Firefly and Renilla luciferase activity using the Promega Dual Luciferase assay kit. For the assay, 20 μl of lysate was taken and assayed as described in the kit instructions using a MLX microtiter™ plate luminometer (Dynex).
Firefly luciferase activity (PPAR driven) was normalised against the Renilla luciferase value for that well and the mean calculated for the three wells treated with the same agent. Activity was then expressed as fold activation over the vehicle (DMSO or ethanol) control values for that particular plate.

The test system of assay [1] is Human foreskin keratinocytes. The experiment in a line: Keratinocyte cornified envelope assay. The settings on record: for Cornified envelopes assay: 4 days, control (0 μM) 22831. The procedure: (§1) Human foreskin keratinocytes (passage 3) were seeded at 4000 cells/well in 96 well plates in Keratinocyte Growth Medium (abbreviated to KGM) containing 0.03 mM calcium and grown for 3 days at 37° C. The cells were then treated with PPAR ligands in KGM containing 0.03 mM calcium for 4 days prior to harvest. Stock solutions of PPAR ligands were dissolved in dimethylsulphoxide (DMSO) and diluted in KGM before adding to the cells. […] The harvested cells were washed 3× in phosphate buffered saline (PBS) and extracted in 1% Triton X100, 50 mM (tris[hydroxymethyl]aminomethane) (Tris) pH 8.0 plus protease inhibitors pepstatin and leupeptin (100 μl/well). The extract was assayed for DNA content using the Pico Green DNA assay (Molecular Probes, Inc.).
After Tris-triton extraction for TGase assay, the cells were extracted with 100 μl/well of 2% SDS, 20 mM DTT for 16 hours at 60° C. Once extracted the SDS suspension from each well was individually filtered through polyviylidenefluoride (PVDF) membrane (Immobilon-P™ Transfer Membrane, Millipore) which had been pre-blocked in Tris Buffered Saline (TBS) containing 0.5% (v/v) Tween 20, 0.5% using a Dot Blot TM Apparatus (Bio-Rad). Each sample was washed several times with TBS/Tween buffer before the membrane was removed from the apparatus, rinsed in distilled water and silver stained using silver stain kit (Bio-Rad). The stained dot blot membrane was scanned and analysed using Phoretix Array™ software.
Cultured keratinocytes were treated with pinoleic acid for 4 days. The cells were extracted with 2% SDS, 20 mM DTT and the cornified envelopes were quantified, after filtration using a PDVF membrane, by silver staining, as described above.

The test system of assay [2] is Human foreskin keratinocytes. The experiment in a line: Keratinocyte proliferation analysis (DNA content per well, Pico Green). The settings on record: for DNA: 4 days, control (0 μM) 14.46. The procedure: as §1
Cultured keratinocytes were treated with cis-9-trans-11 conjugated linoleic acid (CT-CLA) for 4 days. The cells were extracted with Tris-1% Triton X100 and the DNA content per well was determine by the Pico Green assay in accordance with the above described procedure.

`CCCCC/C=C\C=C\CCCCCCCCC(=O)O` [CLA (t10, c12), trans-10-cis-12 conjugated linoleic acid]: in the assay with interleukin-6 (IL-6) (5 and 500 μM, Dunnet's test p<0.01), the “AP-induced IL-6 release” value is recorded as “significantly decrease”. In addition, the IL-6 in the assay with interleukin-6 (IL-6) (Table 5: 5 μM in medium + AP) turned out to be 59.6 pg/mL. Besides, the IL-6 in the assay with interleukin-6 (IL-6) (Table 5: 500 μM in medium + AP) stood at 57.1 pg/mL. For the same compound, on human PPARα, the “Result at (lowest administration level at which super or MS activity was achieved)” value is 100 μm, the “Result (superior activity class achieved)” value is “super (superior activity [super] (50% higher—at least 2.25 times PPARα activation))” and the “Pass at (lowest tested administration level at which the test material passed)” value (shortened to “Pass”) came out at 50 μm.
For `CCCCC/C=C\C/C=C\CC/C=C\CCCC(=O)O` [Pinolenic acid, pinolenic acid], the “cornified envelope formation, statement” value in assay [1] (Example 8: 10 μM, 1 way ANOVA, p<0.05) is on record as “significantly increase”. The Cornified envelopes assay in assay [1] (Table 9: 0.1 μM) amounted to 18828 arb. Units; in assay [1] (Table 9: 1 μM) it was 24860 arb. Units; in assay [1] (Table 9: 10 μM), 36579 arb. Units. The “keratinocyte DNA synthesis activity, statement” value in assay [2] (Example 11: 10 μM, 1 way ANOVA, p<0.05) is “significantly reduce”. Moreover, the DNA in assay [2] (Table 12: 0.1 μM) is given as 13.41 ng/well; in assay [2] (Table 12: 1 μM), 12.95 ng/well; in assay [2] (Table 12: 10 μM), 12.63 ng/well. Further, the “Pass” value at human PPARα is listed as 10 μm.
`CCCCCC=CCC=CC/C=C\CCCCCCC(=O)O` [cis-8,11,14 eicosatrienoic acid]: on human PPARα, the “Result at (lowest administration level at which super or MS activity was achieved)” value is 100 μm, the “Result (superior activity class achieved)” value is “super (superior activity [super] (50% higher—at least 2.25 times PPARα activation))” and the “Pass” value was found to be 100 μm.
On to `CCCCCCCC/C=C\CCCCCCCCCC(=O)O` [cis-11 eicosenoic acid], for which the “Pass” value at human PPARα is 100 μm.
As to `CCC=CCC=CC/C=C\CCCCCCCCCC(=O)O` [cis-11,14,17 eicosatrienoic acid], at human PPARα, the “Result at (lowest administration level at which super or MS activity was achieved)” value is 100 μm, the “Result (superior activity class achieved)” value was “MS (more superior activity [MS] (100% higher—at least 3 times PPARα activation))” and the “Pass” value turned out to be 100 μm.
Turning to `CCCCCC=CC/C=C\CCCCCCCCCC(=O)O` [cis-11,14-eicosadienoic acid], on human PPARα, the “Result at (lowest administration level at which super or MS activity was achieved)” value came out at 100 μm, the “Result (superior activity class achieved)” value is “MS (more superior activity [MS] (100% higher—at least 3 times PPARα activation))” and the “Pass” value was 10 μm.
For `CCC=CCC=CC/C=C\CCCCCCCCCCCC(=O)O` [cis-13,16,19 docosatrienoic acid], the “Pass” value on human PPARα is reported as 100 μm.
Take `CCCC/C=C\CCCCCCCCCCCC(=O)O` [cis-13-octadecenoic acid]: the “Pass” value on human PPARα was determined as 50 μm.
Regarding `CC/C=C\CCCCCCCCCCCCCC(=O)O` [cis-15-octadecanoic acid], the “Pass” value on human PPARα came out at 100 μm.
With `CCCCCC/C=C/CCCCCCCCCC(=O)O` [trans vaccenic acid], the “Pass” value at human PPARα is reported as 10 μm.
On the same count and under the same terms, the result for `CCCCC/C=C/CCCCCCCCCCC(=O)O` [trans-12-octadecenoic acid] reads 100 μm.
